Measured values reported in article PMC6261997, “Synergistic enzymatic and bioorthogonal reactions for selective prodrug activation in living systems” (Nature Communications, 2018).
Blank lines part the entries; values can stand above or below the molecule they belong to.

Key:
[1] = test system: HeLa cells; assay: Intracellular Tz accumulation by fluorescence liberation from TCO-CMR, HeLa cells; assay type: cell-based; conditions: 50 or 500 μM Tz-COOH for 6 h, then 50 μM TCO-CMR 1-24 h
Experimental: Next, we tested the intracellular accumulation of Tz via EISA in an attempt to differentiate cancer cells from normal cells. First, we investigated the accumulation of Tz in HeLa cells and HUVECs over time via fluorescence liberation from TCO-CMR (Fig. 3a). […] The cells were then washed with PBS thoroughly before the addition of an excessive amount of TCO-CMR (100 μL, 50 μM), and the reaction of TCO-CMR with the intracellular accumulated Tz was allowed to proceed for up to 24 h (Supplementary Fig. 8). In this experimental setting, the total liberated fluorescence was proportional to the amount of 3 accumulated inside the cells. […] Therefore, the optimized concentration of 2 (e.g. 500 μM) and incubation time (e.g. 6 h) were selected to differentiate between cancer and normal cells according to liberated fluorescence intensity (Fig. 3c). This differentiation was dependent on the considerably different phosphatase activity between these cell lines (Supplementary Fig. 11), allowing EISA to specifically occur in cancer cells as opposed to normal cells.
All cells were purchased from the National Infrastructure of Cell Line Resource (Beijing, China). HeLa cells, HUVECs and CCC-HEH-2 cells were cultured in a humidified CO2 (5%) incubator at 37 °C in DMEM supplemented with 10% foetal bovine serum (FBS, Gibco) and 1% Pen Strep (PS, Gibco). Saos-2 cells were cultured in a humidified CO2 (5%) incubator at 37 °C in McCoy’s 5A medium supplemented with 10% FBS and 1% PS. Cells were plated in flat-bottom 96-well plates (Corning) at a density of 10^4 cells per well and allowed to attach for 12 h. Then, the culture medium was replaced with 100 μL of pre-warmed medium containing 2 at different concentrations (100–500 μM). After incubation for different durations (1–24 h), the cells were rinsed with PBS, and then 100 μL of 50 μM TCO-CMR (dissolved in PBS) was added for real-time detection of the fluorescence intensity of coumarin in a plate reader (Perkin Elmer).

[2] = Self-assembly and hydrogelation on addition of alkaline phosphatase (ALP); assay type: physicochemical; conditions: after addition of 10 U mL^−1 ALP (dephosphorylated product)
Experimental: The synthesis of the assembly precursor (NapK(Tz)YpF, 2, Fig. 2a) was straightforward (see Supplementary Methods for a detailed protocol). Because KYF was determined to be an excellent self-assembly motif in a tri-peptide census survey, we constructed our assembling molecules based on this sequence. The conjugation of a strong π–π stacking moiety, namely, a naphthalene group, to the N terminus may further enhance the self-assembly potential of this molecule. Phosphorylation on tyrosine (Y) enabled the responsiveness of this motif to phosphatase. All of these components were sequentially conjugated via typical Fmoc-based solid-phase peptide synthesis (SPPS) to yield NapKYpF (1). The capability of self-assembly and hydrogelation of 1 was confirmed by the addition of 10 U mL^−1 alkaline phosphatase (ALP) into a solution of 1 (Supplementary Fig. 1). The dephosphorylated product of 1 formed transparent hydrogels with a network of uniform nanofibres (Supplementary Fig. 2), and the critical hydrogelation concentration was 1.0 mg mL^−1. The ε-amine of Lys on 1 was conjugated with the Tz derivative Tz-COOH (2-(4-(6-methyl-1,2,4,5-tetrazin-3-yl)phenyl) acetic acid) via an NHS-mediated ester–amide exchange reaction to yield 2. […] Upon the addition of ALP (10 U mL^−1) into the solution of 2, a transparent purple hydrogel was formed within 1 h (Fig. 2b inset), and the critical hydrogelation concentration was 1.0 mg mL^−1 (Supplementary Fig. 3). Similar to the formation of a typical hydrogel, investigation by transmission electron microscopy (TEM) confirmed the existence of numerous uniform nanofibres, each with a diameter of approximately 12 nm, which was close to that of hydrogel 1 (Fig. 2b).

[3] = UPLC-MS/MS pharmacokinetic analyses in tumour, liver and plasma; assay type: in vivo, BALB/c nude mice; conditions: within 1 h after i.v. 50 mg kg^−1 2
Experimental: For in vivo prodrug activation, mice received an i.v. injection of 50 mg kg^−1 2 and a subsequent 30 mg kg^−1 TCO-Dox after a 2-h interval. After different time intervals, blood samples were collected from the tail veins, and then, the tumours and livers were harvested for UPLC-MS/MS analysis.
UPLC-MS/MS analyses: UPLC-MS/MS metabolomic analyses were performed using a
multiple reaction-monitoring mode (MRM). Data acquisition and processing were performed using LabSolutions version 5 software. Measurements were carried out at
Dox, solvent A consisted of 0.1% formic acid in water and solvent B consisted of 0.1% formic acid in mass spectrometric grade acetonitrile; (2) for compound TCO-Dox, solvent A consisted of 100% water and solvent B consisted of 100% mass spectrometric grade acetonitrile. Injection volume was 2 or 10 L. The mass spectrometer was interfaced with the liquid chromatograph using an electrospray ion source. The nitrogen nebulizing gas flow was set at 10 L min-1 and the drying gas flow at 15 mL min-1. 4500 V were used for the interface voltage. The temperature of the block heater was maintained at 400 °C and the one of the desolvation line at 250 °C. The MRM transitions were
Dox. The collision gas used was argon at 230 kPa. The dwell time was set to 100 msec and the pause time to 3 msec.
Sample preparation: blood samples were collected from the tail vein of mice. Plasma […]

Compound: Cc1nnc(-c2ccc(CC(=O)O)cc2)nn1 [Tz-COOH, 2-(4-(6-methyl-1,2,4,5-tetrazin-3-yl)phenyl) acetic acid, reference compound]
- accumulation in HeLa cells [1]: hardly accumulated

Compound: NCCCCC(NC(=O)Cc1ccc2ccccc2c1)C(=O)NC(Cc1ccc(OP(=O)(O)O)cc1)C(=O)NC(Cc1ccccc1)C(=O)O (stereo not drawn) [compound 1, NapKYpF]
- critical hydrogelation concentration [2]: 1.0 mg/mL

- concentration in tumours [3]: increased significantly within 1 h
Compound: Cc1nnc(-c2ccc(CC(=O)NCCCCC(NC(=O)Cc3ccc4ccccc4c3)C(=O)NC(Cc3ccc(O)cc3)C(=O)NC(Cc3ccccc3)C(=O)O)cc2)nn1 (stereo not drawn) [compound 3, NapK(Tz)YF]
